Molecular target: menin protein (Homo sapiens (Human), UniProt O00255)
Assay: biochemical
Format: binding
Conditions: FP competitive binding; menin protein 4 nM, FAM-MM2 probe 2 nM; read-out: Menin Binding Affinity IC50
Method in brief: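 Competitive fluorescence polarization assay using FAM-labelled MLL1 peptide probe FAM-MM2 (2 nM final) preincubated with menin (4 nM final) in PBS with 0.02% bovine γ-globulin, 4% DMSO and 0.01% Triton X-100. Compounds were added and incubated 30 min at room temperature. IC50 came from nonlinear regression of competition curves, with Ki also derived.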

Chain of menin protein (O00255 whole entry): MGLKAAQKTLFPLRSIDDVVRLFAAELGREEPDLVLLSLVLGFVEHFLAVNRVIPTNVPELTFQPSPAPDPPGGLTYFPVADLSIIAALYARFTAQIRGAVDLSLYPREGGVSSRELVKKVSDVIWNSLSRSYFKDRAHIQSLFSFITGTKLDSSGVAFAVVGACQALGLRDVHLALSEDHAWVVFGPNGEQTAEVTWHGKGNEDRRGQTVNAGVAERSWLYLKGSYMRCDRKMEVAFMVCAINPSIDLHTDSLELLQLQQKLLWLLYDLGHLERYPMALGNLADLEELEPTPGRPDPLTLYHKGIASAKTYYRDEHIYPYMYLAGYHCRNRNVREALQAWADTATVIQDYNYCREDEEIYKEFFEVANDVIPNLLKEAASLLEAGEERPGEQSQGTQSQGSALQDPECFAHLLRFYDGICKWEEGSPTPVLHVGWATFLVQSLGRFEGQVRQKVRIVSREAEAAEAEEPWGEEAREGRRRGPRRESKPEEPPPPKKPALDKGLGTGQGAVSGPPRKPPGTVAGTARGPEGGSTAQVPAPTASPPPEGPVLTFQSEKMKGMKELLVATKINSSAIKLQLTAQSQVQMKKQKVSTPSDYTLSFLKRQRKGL

SMILES | IC50
CNC(=O)C[C@H]1CCC[C@@H]1C(C#N)(c1ccccc1)C1CCN(CC2CN(c3ccc(S(=O)(=O)c4ccncc4)cc3)C2)CC1 (mixture of isomers) [compound 340, rac-2-((1R,2S)-2-(cyano(phenyl)(1-((1-(4-(pyridin-4-ylsulfonyl)phenyl)azetidin-3-yl)methyl)piperidin-4-yl)methyl)cyclopentyl)-N-methylacetamide] | 2900 nM
CNC(=O)O[C@H]1CCC[C@@H]1C(Cn1ccnc1)(c1ccccc1)C1CCN(CC2CN(c3ccc(S(=O)(=O)c4ccccc4)cc3)C2)CC1 (mixture of isomers) [compound 236, rac-(1S,2R)-2-(2-(1H-imidazol-1-yl)-1-phenyl-1-(1-((1-(4-(phenylsulfonyl)phenyl)azetidin-3-yl)methyl)piperidin-4-yl)ethyl)cyclopentyl methylcarbamate] | 12 nM
COCC[C@H]1CCC[C@@H]1C(C#N)(c1ccccc1)C1CCN(CC2CN(c3ccc(S(=O)(=O)c4ccnc(C)c4)cc3)C2)CC1 (mixture of isomers) [compound 336, rac-2-((1S,2R)-2-(2-methoxyethyl)cyclopentyl)-2-(1-((1-(4-((2-methylpyridin-4-yl)sulfonyl)phenyl)azetidin-3-yl)methyl)piperidin-4-yl)-2-phenylacetonitrile] | 29400 nM
CC(=O)O[C@H]1CCC[C@@H]1C(C#N)(c1cccc(F)c1)C1CCN(CC2CN(c3ccc(CC(F)(F)F)cc3)C2)CC1 (mixture of isomers) [compound 419, rac-(1S,2R)-2-(cyano(3-fluorophenyl)(1-((1-(4-(2,2,2-trifluoroethyl)phenyl)azetidin-3-yl)methyl)piperidin-4-yl)methyl)cyclopentyl acetate] | 293 nM
N#Cc1ccc(OCCCN2CCC(C3(C4CCCS4(=O)=O)NCCc4ccccc43)CC2)cc1 (stereo not shown) [compound 304, 4-(3-(4-(1-(1,1-dioxidotetrahydrothiophen-2-yl)-1,2,3,4-tetrahydroisoquinolin-1-yl)piperidin-1-yl)propoxy)benzonitrile] | 10700 nM
CCCCC(=O)c1cc2cc(CCN3CCC(C4(C5CCCC5)NCCc5ccccc54)CC3)ccc2n1C (stereo not shown) [compound 65, 1-(5-(2-(4-(1-cyclopentyl-1,2,3,4-tetrahydroisoquinolin-1-yl)piperidin-1-yl)ethyl)-1-methyl-1H-indol-2-yl)pentan-1-one] | 2800 nM
O=S(=O)(c1ccc(OC2CC(N3CCC(C4(C5CCCC5)NCCc5ccccc54)CC3)C2)cc1)C1CC1 (stereo not shown) [compound 90, 1-cyclopentyl-1-(1-((1r,3r)-3-(4-(cyclopropylsulfonyl)phenoxy)cyclobutyl)piperidin-4-yl)-1,2,3,4-tetrahydroisoquinoline] | 2400 nM
O=S(=O)(c1ccncc1)c1ccc(N2CC(CN3CCC(C4(C5CCCC5)CN(CC5CC5)Cc5ccccc54)CC3)C2)cc1 (stereo not shown) [compound 50, 4-cyclopentyl-2-(cyclopropylmethyl)-4-(1-((1-(4-(pyridin-4-ylsulfonyl)phenyl)azetidin-3-yl)methyl)piperidin-4-yl)-1,2,3,4-tetrahydroisoquinoline] | 7 nM
N#Cc1ccc(OCCCN2CCC(C(C#N)(CC(=O)N3CCCC3)c3ccccc3)CC2)cc1 (stereo not shown) [compound 306, 4-(3-(4-(1-cyano-3-oxo-1-phenyl-3-(pyrrolidin-1-yl)propyl)piperidin-1-yl)propoxy)benzonitrile] | 40000 nM
N#Cc1ccc(OCCCN2CCC(C(CN)(c3ccccc3)C3CCCC3)CC2)cc1 (stereo not shown) [compound 39, 4-(3-(4-(2-amino-1-cyclopentyl-1-phenylethyl)piperidin-1-yl)propoxy)benzonitrile] | 124 nM
N#Cc1ccc(N2CC(CN3CCC(C4(C5CCCC5)NCCc5ccccc54)CC3)C2)cc1 (stereo not shown) [Cpd. No. 129, 4-(3-((4-(1-cyclopentyl-1,2,3,4-tetrahydroisoquinolin-1-yl)piperidin-1-yl)methyl)azetidin-1-yl)benzonitrile] | 36 nM
CCCC(=O)N1CCCCC1C1(C2CCN(CCCOc3ccc(C#N)cc3)CC2)CN(C)Cc2ccccc21 (stereo not shown) [compound 302, 4-(3-(4-(4-(1-butyrylpiperidin-2-yl)-2-methyl-1,2,3,4-tetrahydroisoquinolin-4-yl)piperidin-1-yl)propoxy)benzonitrile] | 6500 nM
CS(=O)(=O)c1ccc(OCCCN2CCC(C3(C4CCCC4)NCCc4ccccc43)CC2)cc1 (stereo not shown) [compound 296, 1-cyclopentyl-1-(1-(3-(4-(methylsulfonyl)phenoxy)propyl)piperidin-4-yl)-1,2,3,4-tetrahydroisoquinoline] | 400 nM
CNC(=O)O[C@H]1CCC[C@@H]1C(Cn1ccnc1)(c1ccccc1)C1CCN(C(=O)CCCc2ccc(C#N)cc2)CC1 (mixture of isomers) [compound 380, rac-(1S,2R)-2-(1-(1-(4-(4-cyanophenyl)butanoyl)piperidin-4-yl)-2-(1H-imidazol-1-yl)-1-phenylethyl)cyclopentyl methylcarbamate] | 798 nM
O=S(=O)(c1ccncc1)c1ccc(N2CC(CN3CCC(C4(C5CCCC5)CN(Cc5ccncc5)Cc5ccccc54)CC3)C2)cc1 (stereo not shown) [compound 53, 4-cyclopentyl-2-(pyridin-4-ylmethyl)-4-(1-((1-(4-(pyridin-4-ylsulfonyl)phenyl)azetidin-3-yl)methyl)piperidin-4-yl)-1,2,3,4-tetrahydroisoquinoline] | 1100 nM
N#Cc1ccc(OCCCN2CCC(C(CO)(c3ccccc3)C3CCCC3)CC2)cc1 (stereo not shown) [compound 37, 4-(3-(4-(1-cyclopentyl-2-hydroxy-1-phenylethyl)piperidin-1-yl)propoxy)benzonitrile] | 449 nM
CCNC(=O)O[C@@H]1CCC[C@H]1C(C#N)(c1ccccc1)C1CCN(CC2CN(c3ccc(S(=O)(=O)c4ccncc4)cc3)C2)CC1 (mixture of isomers) [compound 214, rac-(1R,2S)-2-(cyano(phenyl)(1-((1-(4-(pyridin-4-ylsulfonyl)phenyl)azetidin-3-yl)methyl)piperidin-4-yl)methyl)cyclopentyl ethylcarbamate] | 3400 nM
CC(=O)O[C@@H]1CCC[C@H]1C(C#N)(c1ccccc1)C1CCN(CC2CN(c3ccc(S(=O)(=O)C4CC4)cc3)C2)CC1 (mixture of isomers) [compound 188, rac-((1R,2S)-2-(cyano(1-((1-(4-(cyclopropylsulfonyl)phenyl)azetidin-3-yl)methyl)piperidin-4-yl)(phenyl)methyl)cyclopentyl acetate] | 1700 nM
CC(=O)O[C@H]1CCC[C@@H]1C(C#N)(c1ccccc1F)C1CCN(CCCOc2ccc(C#N)cc2)CC1 (mixture of isomers) [compound 308, rac-(1S,2R)-2-(cyano(1-(3-(4-cyanophenoxy)propyl)piperidin-4-yl)(2-fluorophenyl)methyl)cyclopentyl acetate] | 66 nM
CCC1CCCC1C(C#N)(c1ccccc1)C1CCN(CC2CN(c3ccc(S(=O)(=O)c4ccncc4)cc3)C2)CC1 (stereo not shown) [compound 338, 2-(2-ethylcyclopentyl)-2-phenyl-2-(1-((1-(4-(pyridin-4-ylsulfonyl)phenyl)azetidin-3-yl)methyl)piperidin-4-yl)acetonitrile] | 10200 nM
CC(=O)O[C@@H]1CCC[C@H]1C(C#N)(c1cccc(F)c1)C1CCN(CC2CN(c3ccc(S(=O)(=O)c4ccccc4)cc3)C2)CC1 (mixture of isomers) [compound 313, rac-(1R,2S)-2-(cyano(3-fluorophenyl)(1-((1-(4-(phenylsulfonyl)phenyl)azetidin-3-yl)methyl)piperidin-4-yl)methyl)cyclopentyl acetate] | 13800 nM
CSC[C@@H]1CCC[C@H]1C(C#N)(c1ccccc1)C1CCN(CC2CN(c3ccc(S(=O)(=O)c4ccncc4)cc3)C2)CC1 (mixture of isomers) [compound 260, rac-2-((1R,2R)-2-((methylthio)methyl)cyclopentyl)-2-phenyl-2-(1-((1-(4-(pyridin-4-ylsulfonyl)phenyl)azetidin-3-yl)methyl)piperidin-4-yl)acetonitrile] | 17000 nM
N#Cc1ccc2[nH]c(CCN3CCC(C4(C5CCCC5)NCCc5ccccc54)CC3)cc2c1 (stereo not shown) [compound 67, 2-(2-(4-(1-cyclopentyl-1,2,3,4-tetrahydroisoquinolin-1-yl)piperidin-1-yl)ethyl)-1H-indole-5-carbonitrile] | 1200 nM
O=S(=O)(c1ccncc1)c1ccc(N2CC(CN3CCC(C4(C5CCCC5)CN(CC5COC5)Cc5ccccc54)CC3)C2)cc1 (stereo not shown) [compound 52, 4-cyclopentyl-2-(oxetan-3-ylmethyl)-4-(1-((1-(4-(pyridin-4-ylsulfonyl)phenyl)azetidin-3-yl)methyl)piperidin-4-yl)-1,2,3,4-tetrahydroisoquinoline] | 25 nM
CN(C)C(=O)N[C@@H]1CCC[C@H]1C(C#N)(c1ccccc1)C1CCN(CC2CN(c3ccc(S(=O)(=O)c4ccncc4)cc3)C2)CC1 (mixture of isomers) [compound 276, rac-3-((1R,2S)-2-(cyano(phenyl)(1-((1-(4-(pyridin-4-ylsulfonyl)phenyl)azetidin-3-yl)methyl)piperidin-4-yl)methyl)cyclopentyl)-1,1-dimethylurea] | 1200 nM
CCN1Cc2ccccc2C(C2CCCC2)(C2CCN(CC3(C)CN(c4ccc(S(=O)(=O)c5ccncc5)cc4)C3)CC2)C1 (stereo not shown) [compound 161, 4-cyclopentyl-2-ethyl-4-(1-((3-methyl-1-(4-(pyridin-4-ylsulfonyl)phenyl)azetidin-3-yl)methyl)piperidin-4-yl)-1,2,3,4-tetrahydroisoquinoline] | 21 nM
CCNC(=O)O[C@H]1CCC[C@@H]1C(C#N)(c1ccccc1)C1CCN(CC2CN(c3ccc(S(=O)(=O)c4ccncc4)cc3)C2)CC1 (mixture of isomers) [compound 213, rac-(1S,2R)-2-(cyano(phenyl)(1-((1-(4-(pyridin-4-ylsulfonyl)phenyl)azetidin-3-yl)methyl)piperidin-4-yl)methyl)cyclopentyl ethylcarbamate] | 170 nM
CN1Cc2cccc(F)c2C(C2CCCC2)(C2CCN(CC3CN(c4ccc(C#N)cc4)C3)CC2)C1 (stereo not shown) [compound 33, 4-(3-((4-(4-cyclopentyl-5-fluoro-2-methyl-1,2,3,4-tetrahydroisoquinolin-4-yl)piperidin-1-yl)methyl)azetidin-1-yl)benzonitrile] | 19 nM

From patent US10899738B2 (THE REGENTS OF THE UNIVERSITY OF MICHIGAN, priority 2016, dated 2021)
